Measurements published in patent US4213984A, “11-(Piperazino-acetyl)-5,11-di hydro-6H-pyrido[2,3-b][1,4]benzodiazepin-6-ones and salts thereof” (Boehringer Ingelheim GmbH, priority 1977, dated 1980).

Legend:
guinea pig colon = assay: spasmolytic effect in vitro on the guinea pig colon, acetylcholine-induced spasms, compared with atropinesulfate; settings: acetylcholine spasm, relative to Atropine = 1
Procedure: (§1) The compounds were examined with regard to their inhibiting effect on the formation of stress ulcers in rats and their spasmolytic effect, related to atropine, with consideration of their acute toxicity.
The spasmolytic effect was determined in vitro on the guinea pig colon, using the experimental arrangement according to R. Magnus, Pflugers Archiv, 102, pp. 123 (1904). Acetylcholine was taken to induce spasms, the substance for comparison was atropinesulfate. The spasticum was administered one minute before the administration of the spasmolytic substance, and the spasmolytic was allowed to take effect for 1 minute.

white mice = assay: acute toxicity after peroral administration to fasted white mice; type: in vivo; settings: mouse, six mice per dosage, at the LD50 dose
Procedure: (§2) The acute toxicity was determined after peroral administration of the test substance to fasted white mice with a body weight of 18 to 20 gm. The observation period was 14 days. For each dosage a group of six mice was used.

[1] = as above; type: in vivo; settings: in vivo, po, mouse, observation period 14 days, read-out: LD50 peroral mgm/kg mouse
Procedure: as §2

stress ulcers in rats = assay: inhibiting effect on the formation of stress ulcers in rats (Takagi and Okabe), peroral; type: in vivo; settings: po, rat; for inhibition in vivo at 12.5 mg/kg: 12.5 mgm/kg, read-out: Ulcer inhibition in % (rat) after peroral administration of 12.5 mgm/kg; for inhibition in vivo at 25 mg/kg: 25 mgm/kg, read-out: Ulcer inhibition in % (rat) after peroral administration of 25 mgm/kg; for inhibition in vivo at 50 mg/kg: 50 mgm/kg, read-out: Ulcer inhibition in % (rat) after peroral administration of 50 mgm/kg
Procedure: as §1
The inhibiting effect on the formation of stress ulcers in rats was determined according to the method of K. Takagi and S. Okabe, Jap.Journ.Pharmac. 18,pp. 9 to 18 (1968). Fed female rats with a body weight between 220 and 260 gm were individually put into small wire cages and were subsequently kept vertically submerged in a water bath which was kept constant at a temperature of 23° C. for 16 hours, so that only the heads and the breastbones of the animals were above the water surface. The test compounds were administered perorally 5 to 10 minutes before. With each substance five animals were treated. 1 ml of a 0.9% physiological sodium chloride solution or 1 ml of a 1% tylose solution was administered to the control animals in the same way. After 18 hours the animals were killed by an overdose of ethyl chloride, the stomachs were excised, cut along the big curvature and spread on a cork plate. The evaluation was carried out according to the methods of Marazzi-Uberti and Turba, Med. Exp. 4, pp. 284 to 292 (1961), and Takagi and Okabe (supra)

Structure (SMILES)	Spasmolysis (acetylcholine) in respect to Atropine = 1 (guinea pig colon)	number of animals that died (white mice)	LD50 at 336 h [1] [mg/kg]	inhibition in vivo at 12.5 mg/kg (stress ulcers in rats) [%]	inhibition in vivo at 25 mg/kg (stress ulcers in rats) [%]	inhibition in vivo at 50 mg/kg (stress ulcers in rats) [%]
C=C(C)CN1CCN(CC(=O)N2c3ccccc3C(=O)Nc3cccnc32)CC1 [A, 5,11-Dihydro-11-{[4-(2-methyl-allyl)-1-piperazinyl]acetyl}-6H-pyrido[2,3-b][1,4]benzodiazepin-6-one]	1/330	+ (means, 0 of 6 animals died)	> 3000	32	52	90
CC(C)=CCN1CCN(CC(=O)N2c3ccccc3C(=O)Nc3cccnc32)CC1.Cl.Cl [B, 5,11-Dihydro-11-{[4-(3-methyl-but-2-enyl)-1-piperazinyl]acetyl}-6H-pyrido[2,3-b][1,4]benzodiazepin-6-one dihydrochloride]	1/200	+ (means, 0 of 6 animals died)	> 1500	52	63	84
CC(C)(C)CN1CCN(CC(=O)N2c3ccccc3C(=O)Nc3cccnc32)CC1 [C, 5,11-Dihydro-11-{[4-(2,2-dimethyl-propyl)-1-piperazinyl]acetyl}-6H-pyrido[2,3-b][1,4]benzodiazepin-6-one]	1/70	+ (means, 0 of 6 animals died)	> 1500	39	61	95
O=C1Nc2cccnc2N(C(=O)CN2CCN(CC34CC5CC(CC(C5)C3)C4)CC2)c2ccccc21 [D, 11-{[4-(1-Adamantyl-methyl)-1-piperazinyl]acetyl}-5,11-dihydro-6-H-pyrido[2,3-b][1,4]benzodiazepin-6-one]	1/86	+ (means, 0 of 6 animals died)	> 3000	26	47	79
O=C1Nc2cccnc2N(C(=O)CN2CCN(Cc3ccc4c(c3)OCO4)CC2)c2ccccc21 [E, 5,11-Dihydro-11-{[4-(3,4-methylenedioxy-benzyl)-1-piperazinyl]-acetyl}-6H-pyrido[2,3-b][1,4]benzodiazepin-6-one]	1/78	+++ (means, 2 of 6 animals died)	> 3000	37	73	95
CC1CN(C)CCN1CC(=O)N1c2ccccc2C(=O)Nc2cccnc21.Cl (stereo not drawn) [F, 5,11-Dihydro-11-[(2,4-dimethyl-1-piperazinyl)acetyl]-6H-pyrido-[2,3-b][1,4]benzodiazepin-6-one-hydrochloride]	1/130	++ (means, 1 of 6 animals died)	> 3000	84	90	95
CN1C(=O)c2ccccc2N(C(=O)CN2CCN(Cc3ccc4c(c3)OCO4)CC2)c2ncccc21 [G, 5,11-Dihydro-5-methyl-11-{[4-(3,4methylenedioxy-benzyl)-1-piperazinyl]acetyl}-6H-pyrido[2,3-b][1,4]benzodiazepin-6-one]	1/290	+++ (means, 2 of 6 animals died)	> 1500	21	58	90
O=C1Nc2cccnc2N(C(=O)CN2CCN(CC=Cc3ccccc3)CC2)c2ccccc21 [H, 11-[(4-Cinnamyl-1-piperazinyl)acetyl]-5,11-dihydro-6H-pyrido-[2,3-b][1,4]benzodiazepin-6-one]	1/700	++++ (means, 4 of 6 animals died)	~3000	53	69	95
